# Results taken from US20230203041A1, “ANTAGONISTS OF THE ADENOSINE A2A RECEPTOR” (AdoRx Therapeutics Limited, priority 2020, published 2023).
# Counter-ions that a name gives are not always drawn.
# Tests used:
# [1] = biological target: T1, human Adenosine A2a receptor (Homo sapiens, UniProt P29274); experiment: Adenosine receptor TR-FRET binding assay (CA200645 displacement), A2a; details: 100 nM CA200645, CHO cell membranes, 2 hours at room temperature
# T1 construct: expressed in transfected cells; host or cells: CHO cell membranes
# Method: All FRET binding experiments were conducted at room temperature in white 384-well plates, in assay binding buffer containing 1×LabMed (Cisbio, France), 100 μg/mL saponin, 1% DMSO and 0.02% pluronic acid. Binding of the fluorescently labelled Adenosine receptor antagonist XAC (CA200645, FRET acceptor) to terbium-labelled A1, A2a, A2b and A3 adenosine receptors (FRET donors) was detected by time-resolved FRET due to the close proximity of the donor and acceptor in a binding event. To investigate the ability of unlabelled test compounds to bind to Adenosine A1, A2a, A2b and A3 receptors, dose response curves were constructed that determined the ability of a range of concentrations to inhibit the binding of 30 nM CA200645 to the A2b receptor and 100 nM CA200645 to the A1, A2a, and A3 receptor.
# Serial dilution (1:3 dilutions) of test compounds in neat DMSO and transfer of a 400 nL sample of test compound into the assay plate was carried out using the Mosquito (TTP Labtech, UK). The compound samples were incubated for 2 hours at room temperature with a fixed concentration of CA200645 defined for each receptor (see above) and CHO cell membranes containing the human Adenosine A1 (0.5 μg/well), A2a (0.3 μg/well), A2b (1 μg/well) or A3 (1 μg/well) receptor in 40 μL of assay buffer. Total and non-specific binding of CA200645 was determined in the absence and presence of 10 μM XAC, respectively. Following 2 hours incubation, the level of CA200645 binding was detected on a Pherastar FSX (BMG Labtech, Germany) using standard TR-FRET settings. The terbium donor was excited with three laser flashes at a wavelength of 337 nm, and donor and acceptor emission was detected at 620 nm and 665 nm wavelengths, respectively. FRET ratios were obtained by multiplying the acceptor/donor ratio value by 10,000. Specific binding was determined by subtracting the non-specific binding FRET ratio from the total binding FRET ratio. Compound IC50 curves were analysed using GraphPad Prism 7.0 (GraphPad, USA) and Ki affinity values were determined from the obtained IC50 values using the method of Cheng and Prusoff.
# [2] = biological target: T2, human Adenosine A2b receptor (Homo sapiens, UniProt P29275); experiment: Adenosine receptor TR-FRET binding assay (CA200645 displacement), A2b; details: 30 nM CA200645, CHO cell membranes, 2 hours at room temperature
# T2 construct: expressed in transfected cells; host or cells: CHO cell membranes
# T2 sequence (P29275 1-332): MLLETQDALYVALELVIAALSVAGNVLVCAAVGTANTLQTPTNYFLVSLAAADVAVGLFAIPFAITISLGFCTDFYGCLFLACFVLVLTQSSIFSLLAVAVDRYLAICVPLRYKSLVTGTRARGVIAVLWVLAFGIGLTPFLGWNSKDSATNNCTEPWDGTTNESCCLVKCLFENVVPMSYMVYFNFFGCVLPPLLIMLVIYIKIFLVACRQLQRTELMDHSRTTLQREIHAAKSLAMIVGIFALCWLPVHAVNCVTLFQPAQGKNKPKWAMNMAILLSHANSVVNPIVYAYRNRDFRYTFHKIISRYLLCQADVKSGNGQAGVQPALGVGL
# [3] = biological target: T3, human Adenosine A1 receptor (Homo sapiens, UniProt P30542); experiment: Adenosine receptor TR-FRET binding assay (CA200645 displacement), A1
# T3 sequence (P30542 1-326): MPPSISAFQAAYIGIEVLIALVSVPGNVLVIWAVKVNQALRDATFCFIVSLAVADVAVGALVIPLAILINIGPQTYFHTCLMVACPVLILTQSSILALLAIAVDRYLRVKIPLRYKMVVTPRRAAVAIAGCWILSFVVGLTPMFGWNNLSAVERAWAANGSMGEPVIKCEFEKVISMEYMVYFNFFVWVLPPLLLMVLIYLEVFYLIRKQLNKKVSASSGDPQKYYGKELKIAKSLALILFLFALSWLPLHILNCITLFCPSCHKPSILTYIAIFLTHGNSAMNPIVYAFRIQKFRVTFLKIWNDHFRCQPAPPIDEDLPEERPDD
# [4] = biological target: T4, human Adenosine A3 receptor (Homo sapiens, UniProt P0DMS8); experiment: Adenosine receptor TR-FRET binding assay (CA200645 displacement), A3
# T4 sequence (P0DMS8 1-318): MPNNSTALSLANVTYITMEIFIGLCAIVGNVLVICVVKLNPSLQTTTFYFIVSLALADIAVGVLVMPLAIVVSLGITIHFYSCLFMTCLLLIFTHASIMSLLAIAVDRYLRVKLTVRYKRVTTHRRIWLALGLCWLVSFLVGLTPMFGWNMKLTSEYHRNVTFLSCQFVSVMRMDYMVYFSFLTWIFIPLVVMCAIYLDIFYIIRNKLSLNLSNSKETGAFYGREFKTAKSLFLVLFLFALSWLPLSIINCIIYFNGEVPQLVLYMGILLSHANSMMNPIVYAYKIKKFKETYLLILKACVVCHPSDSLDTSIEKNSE
# T1 sequence (P29274 whole entry): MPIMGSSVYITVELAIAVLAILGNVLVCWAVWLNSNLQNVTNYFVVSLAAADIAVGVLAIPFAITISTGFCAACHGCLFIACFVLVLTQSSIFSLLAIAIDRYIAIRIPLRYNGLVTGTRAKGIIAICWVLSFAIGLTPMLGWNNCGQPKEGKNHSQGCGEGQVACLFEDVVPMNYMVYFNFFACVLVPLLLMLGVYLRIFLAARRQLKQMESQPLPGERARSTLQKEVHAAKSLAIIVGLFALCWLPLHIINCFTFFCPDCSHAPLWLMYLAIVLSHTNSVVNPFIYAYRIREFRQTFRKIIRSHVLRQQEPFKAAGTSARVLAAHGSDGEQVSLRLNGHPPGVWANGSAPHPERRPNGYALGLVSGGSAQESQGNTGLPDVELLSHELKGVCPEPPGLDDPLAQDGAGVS
Structure (SMILES),Ki [1] [µM],Ki [2] [µM],Ki [3] [µM],Ki [4] [µM]
"Cc1cc(-c2c(-c3cccc(C#N)c3)nn3ccc(C(=O)N[C@H](C)CO)nc23)cc(Cl)n1 [Example 6.6, 3-(2-Chloro-6-methyl-4-pyridyl)-2-(3-cyanophenyl)-N-[(1R)-2-hydroxy-1-methyl-ethyl]pyrazolo[1,5-a]pyrimidine-5-carboxamide]",0.0009,0.035,0.39,> 1
Cc1cc(-c2c(-c3cccc(C#N)c3)nn3ccc(N[C@@H]4CC[C@@H]4O)nc23)cc(Cl)n1 [Example 2.22],0.0062,0.048,0.109,> 1
"Cc1cc(-c2c(-c3cccc(C#N)c3)nn3ccc(CN)nc23)cc(Cl)n1 [Example 21, 3-[5-(Aminomethyl)-3-(2-chloro-6-methyl-4-pyridyl)pyrazolo[1,5-a]pyrimidin-2-yl]benzonitrile]",0.0815,0.102,2.44,> 1
"Cc1cc(-c2c(-c3cccc(C#N)c3)nn3ccc(C(=O)NC45CCC(N)(CC4)C5)nc23)cc(Cl)n1 [Example 6.12, N-(4-Aminonorbornan-1-yl)-3-(2-chloro-6-methyl-4-pyridyl)-2-(3-cyanophenyl)pyrazolo[1,5-a]pyrimidine-5-carboxamide]",0.0037,0.006,0.105,> 1
"CCn1nccc1-c1c(-c2cccc(C#N)c2)nn2ccc(NCC(C)(C)O)nc12 [Example 33, 3-[3-(2-Ethylpyrazol-3-yl)-5-[(2-hydroxy-2-methyl-propyl)amino]pyrazolo[1,5-a]pyrimidin-2-yl]benzonitrile]",0.0131,0.028,0.118,> 1
"Cc1cc(-c2c(-c3cccc(C#N)c3)nn3ccc(N/C(N)=N\C#N)nc23)cc(Cl)n1 [Example 32, 1-[3-(2-Chloro-6-methyl-4-pyridyl)-2-(3-cyanophenyl)pyrazolo[1,5-a]pyrimidin-5-yl]-2-cyano-guanidine]",0.0174,0.053,0.8,> 1
"Cc1cccnc1CN1CCN(c2ccn3nc(-c4cccc(F)c4)c(C#N)c3n2)CC1 [Example 60, 2-(3-Fluorophenyl)-5-[4-[(3-methyl-2-pyridyl)methyl]piperazin-1-yl]pyrazolo[1,5-a]pyrimidine-3-carbonitrile]",0.0339,4.6,0.027,1
"Cc1cc(-c2c(-c3cccc(C#N)c3)nn3ccc(NC(=O)N4CCNCC4)nc23)cc(Cl)n1 [Example 31, N-[3-(2-Chloro-6-methyl-4-pyridyl)-2-(3-cyanophenyl)pyrazolo[1,5-a]pyrimidin-5-yl]piperazine-1-carboxamide]",0.0104,0.002,0.096,> 1
Cc1cc(-c2c(-c3cccc(C#N)c3)nn3ccc(N4CC5CCC(C4)N5C)nc23)cc(Cl)n1 [Example 2.2],0.0005,0.045,0.005,> 1
Cc1cc(-c2c(-c3cccc(C#N)c3)nn3ccc(NC(C)CN(C)C)nc23)cc(Cl)n1 (stereo not drawn) [Example 2.30],0.0158,0.055,0.45,> 1
"Cc1cc(-c2c(-c3cccc(C#N)c3)nn3ccc(NC(=O)C(C)(C)C)nc23)cc(Cl)n1 [Example 95, N-[3-(2-Chloro-6-methyl-4-pyridyl)-2-(3-cyanophenyl)pyrazolo[1,5-a]pyrimidin-5-yl]-2,2-dimethyl-propanamide]",0.0027,0.031,0.146,> 1
"Cc1cc(-c2c(-c3cccc(C#N)c3)nn3ccc(N[C@@H](C)C(=O)O)nc23)cc(Cl)n1 [Example 17, (2S)-2-[[3-(2-Chloro-6-methyl-4-pyridyl)-2-(3-cyanophenyl)pyrazolo[1,5-a]pyrimidin-5-yl]amino]propanoic acid]",0.0179,0.101,0.136,> 1
"Cc1cc(-c2c(-c3cccc(C#N)c3)nn3ccc(N[C@@H](C)[C@H](O)CO)nc23)cc(Cl)n1 [Example 4.9, 3-[3-(2-Chloro-6-methyl-4-pyridyl)-5-[[(1S,2S)-2,3-dihydroxy-1-methyl-propyl]amino]pyrazolo[1,5-a]pyrimidin-2-yl]benzonitrile]",0.0011,0.012,0.005,> 1
Cc1cc(-c2c(-c3cccc(C#N)c3)nn3ccc(N4CCN[C@H](C(C)(C)O)C4)nc23)cc(Cl)n1 [Example 2.41],0.0017,0.002,0.082,> 1
"Cc1cc(-c2c(-c3cccc(C#N)c3)nn3ccc(C(C)(C)O)nc23)cc(Cl)n1 [Example 8, 3-[3-(2-Chloro-6-methyl-4-pyridyl)-5-(1-hydroxy-1-methyl-ethyl)pyrazolo[1,5-a]pyrimidin-2-yl]benzonitrile]",0.0099,0.041,0.291,> 1

# Now from value to compound:
Ki [1] [µM],Ki [2] [µM],Ki [3] [µM],Ki [4] [µM],Structure (SMILES)
0.0101,0.016,0.006,0.578,"Cc1cc(-c2c(-c3cccc(C#N)c3)nn3ccc(N)nc23)cc(F)n1 [Example 26.4, 3-[5-Amino-3-(2-fluoro-6-methyl-4-pyridyl)pyrazolo[1,5-a]pyrimidin-2-yl]benzonitrile]"
0.0055,0.005,0.612,> 1,"Cc1cc(-c2c(-c3cccc(C#N)c3)nn3ccc(C(=O)N[C@H]4CNC[C@@H]4O)nc23)cc(Cl)n1 [Example 7.5, 3-(2-Chloro-6-methyl-4-pyridyl)-2-(3-cyanophenyl)-N-[trans-(3S,4S)-4-hydroxypyrrolidin-3-yl]pyrazolo[1,5-a]pyrimidine-5-carboxamide]"
0.0003,0.019,0.15,0.599,Cc1cc(-c2c(-c3cccc(C#N)c3)nn3ccc(C(=O)NCC4CCCNC4=O)nc23)cc(C)n1 (stereo not drawn) [Example 92.15]
0.0177,0.054,0.418,> 1,"Cc1cc(-c2c(-c3cccc(C#N)c3)nn3ccc(C(=O)NC4(C#N)CCNCC4)nc23)cc(Cl)n1 (single isomer, unassigned) [Example 7.16, 3-(2-Chloro-6-methyl-4-pyridyl)-2-(3-cyanophenyl)-N-(4-cyano-4-piperidyl)pyrazolo[1,5-a]pyrimidine-5-carboxamide]"
0.0007,0.022,0.167,> 1,Cc1cc(-c2c(-c3cccc(C#N)c3)nn3ccc(C(=O)NC(C)C4(O)COC4)nc23)cc(C)n1 (stereo not drawn) [Example 92.6]
0.0078,0.073,0.103,> 1,"Cc1cc(-c2c(-c3cccc(C#N)c3)nn3ccc(NC(=O)N4CC5(COC5)C4)nc23)cc(C)n1 [Example 30.4, N-[2-(3-Cyanophenyl)-3-(2,6-dimethyl-4-pyridyl)pyrazolo[1,5-a]pyrimidin-5-yl]-2-oxa-6-azaspiro[3.3]heptane-6-carboxamide]"
0.0046,0.006,0.238,> 1,"Cc1cc(-c2c(-c3cccc(C#N)c3)nn3ccc(NC(=O)NCCN)nc23)cc(Cl)n1 [Example 31.2, 1-(2-Aminoethyl)-3-[3-(2-chloro-6-methyl-4-pyridyl)-2-(3-cyanophenyl)pyrazolo[1,5-a]pyrimidin-5-yl]urea trifluoroacetate]"
0.0017,0.018,0.035,> 1,"Cc1cc(-c2c(-c3cccc(C#N)c3)nn3ccc(NC4CCN(C)C(=O)C4)nc23)cc(C)n1 (stereo not drawn) [Example 105.2, 3-[3-(2,6-Dimethyl-4-pyridyl)-5-[(1-methyl-2-oxo-4-piperidyl)amino]pyrazolo[1,5-a]pyrimidin-2-yl]benzonitrile]"
0.0315,0.049,0.13,> 1,"CCN1CCC(NC(=O)Nc2ccn3nc(-c4cccc(C#N)c4)c(-c4cc(C)nc(Cl)c4)c3n2)CC1 [Example 30.2, 1-[3-(2-Chloro-6-methyl-4-pyridyl)-2-(3-cyanophenyl)pyrazolo[1,5-a]pyrimidin-5-yl]-3-(1-ethyl-4-piperidyl)urea]"
